According to ChEMBL document CHEMBL1926613, “Bisubstrate analogue inhibitors of 6-hydroxymethyl-7,8-dihydropterin pyrophosphokinase: New design with improved properties” (Bioorg Med Chem, 2012):

Legend:
[1] = biological target: T1, 2-amino-4-hydroxy-6-hydroxymethyldihydropteridine pyrophosphokinase (Escherichia coli (strain K12), UniProt P26281); experiment: Binding affinity to Escherichia coli HPPK using 6-hydroxymethyl-7,8-dihydropterin as substrate and ATP by fluorometric analysis
T1 sequence (P26281 whole entry): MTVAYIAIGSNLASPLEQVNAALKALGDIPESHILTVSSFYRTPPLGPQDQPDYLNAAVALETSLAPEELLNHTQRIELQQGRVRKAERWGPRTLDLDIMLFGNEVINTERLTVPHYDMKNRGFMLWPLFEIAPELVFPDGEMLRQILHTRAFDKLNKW

[2] = biological target: T1, 2-amino-4-hydroxy-6-hydroxymethyldihydropteridine pyrophosphokinase; experiment: Inhibition of Escherichia coli HPPK using 6-hydroxymethyl-7,8-dihydropterin as substrate and [32P]-ATP

| Structure (SMILES) | Kd [1] | IC50 [2] |
| --- | --- | --- |
| Nc1nc2ncc(COP(=O)(O)OP(=O)(O)OP(=O)(O)OP(=O)(O)OC[C@H]3O[C@@H](n4cnc5c(N)ncnc54)[C@H](O)[C@@H]3O)nc2c(=O)[nH]1 | 0.47 µM | 0.44 µM |
| Nc1nc2ncc(CNCCN3CCC(SC[C@H]4O[C@@H](n5cnc6c(N)ncnc65)[C@H](O)[C@@H]4O)CC3)nc2c(=O)[nH]1 | > 150 µM | > 100 µM |
| CC1(C)Nc2nc(N)[nH]c(=O)c2N=C1C(=O)NCCN1CCC(SC[C@H]2O[C@@H](n3cnc4c(N)ncnc43)[C@H](O)[C@@H]2O)CC1 | 2.55 µM | 3.16 µM |
